Drawing on the supplement of paper PMC10307832, this text covers relative viability for 1 cell line.

Common to all, as to assay: relative viability (nuclei count vs DMSO), 5 days (fraction); higher = more cells survive
Compound in assay [1]: C1=CC2=C(C=C(C(=C2N=C1)O)N=NC3=CC4=C(C=C3)C=C(C=C4)S(=O)(=O)O)S(=O)(=O)O + Nc1ncn([C@H]2C[C@H](O)[C@@H](CO)O2)c(=O)n1 [Decitabine] (partner 2 µM)
In a few lines: (§1)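 For relative viability, nuclei counts in treated wells were divided by those in vehicle wells. Lung cancer cell lines had been pin-tool dosed in 1536-well plates the day after seeding and cultured for 5 days, then fixed and stained in one step (final 0.05% Triton X-100, 1% formaldehyde, 1 ug/ml Hoechst) and imaged at 4×. Doses were one drug alone or a fixed anchor-drug dose plus five library-drug doses (not always all listed) in √10 steps, and values are duplicate-plate medians.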

Compound in assay [2]: C1=CC2=C(C=C(C(=C2N=C1)O)N=NC3=CC4=C(C=C3)C=C(C=C4)S(=O)(=O)O)S(=O)(=O)O + O=C(CCCCCCC(=O)Nc1ccccc1)NO [Vorinostat] (partner 1 µM)
In a few lines:
as §1

Compound in the assay “AT-7519 + Lapatinib”: O=C(NC1CCNCC1)c1n[nH]cc1NC(=O)c1c(Cl)cccc1Cl [AT-7519] + CS(=O)(=O)CCNCc1ccc(-c2ccc3ncnc(Nc4ccc(OCc5cccc(F)c5)c(Cl)c4)c3c2)o1 [Lapatinib] (partner 2 µM)
In short, it runs like this: as §1

Compound in the assay “AT-7519 + Alpelisib”: O=C(NC1CCNCC1)c1n[nH]cc1NC(=O)c1c(Cl)cccc1Cl [AT-7519] + Cc1nc(NC(=O)N2CCC[C@H]2C(N)=O)sc1-c1ccnc(C(C)(C)C(F)(F)F)c1 [Alpelisib] (partner 2 µM)
In a few lines:
as §1

As for SW 1573, the relative viability stood at 0.55 in assay [1] (first compound 0.08 µM); 0.494 in assay [1] (first compound 0.253 µM); 0.419 in assay [1] (first compound 0.8 µM); 0.494 in assay [1] (first compound 2.53 µM); 0.275 in assay [1] (first compound 8 µM); 0.92 in assay [2] (first compound 0.08 µM). The relative viability in assay [2] (first compound 0.253 µM) was 0.915; in assay [2] (first compound 0.8 µM), 0.531; in assay [2] (first compound 2.53 µM), 0.828; in assay [2] (first compound 8 µM) it was 0.519; with AT-7519 + Lapatinib (first compound 0.01 µM), 1.08; with AT-7519 + Lapatinib (first compound 0.03162 µM) it was 1.18. Besides, the relative viability in the assay with AT-7519 + Lapatinib (first compound 0.3162 µM) came out at 1.07; in the assay with AT-7519 + Lapatinib (first compound 1 µM), 0.569; with AT-7519 + Alpelisib (first compound 0.01 µM) it was 0.802; with AT-7519 + Alpelisib (first compound 0.03162 µM), 0.739; in the assay with AT-7519 + Alpelisib (first compound 0.3162 µM) it was 0.743; with AT-7519 + Alpelisib (first compound 1 µM), 0.394.
